Results from PubChem BioAssay (NCI).
Where “and” joins values, the source holds several entries; their conditions need not be identical. Equal values may be shown once.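 In this assay, cells in 96-well plates receive the compound at five concentrations for 48 hours. Endpoints are linearly interpolated between the surrounding concentrations. Abbreviation: GI50, concentration required for 50% inhibition of growth. TGI is the concentration that stops growth completely.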

How the values were obtained:
Assay in all cases: NCI-60 cell line screen, 48 h
NCI-H522 lung = system: NCI-H522 lung
SK-OV-3 ovarian = system: SK-OV-3 ovarian
CCRF-CEM leukemia = system: CCRF-CEM leukemia
SK-MEL-5 melanoma = system: SK-MEL-5 melanoma
NCI/ADR-RES ovarian = system: NCI/ADR-RES ovarian
M14 melanoma = system: M14 melanoma
ACHN renal = system: ACHN renal
UO-31 renal = system: UO-31 renal

CCc1n[nH]c(=O)n1CCCCCCCCCCCCn1c(CC)n[nH]c1=O
TGI (NCI-H522 lung): > 100 µM | TGI (SK-OV-3 ovarian): > 100 µM | TGI (CCRF-CEM leukemia): 64.3 µM | TGI (SK-MEL-5 melanoma): 32.8 µM | TGI (NCI/ADR-RES ovarian): > 100 µM | TGI (M14 melanoma): 95.8 µM | TGI (ACHN renal): > 100 µM | TGI (UO-31 renal): > 100 µM

CC(C)(C)c1ccc(OCCOc2ccc(C(C)(C)C)cc2N)c(N)c1
TGI (NCI-H522 lung): > 100 µM | TGI (SK-OV-3 ovarian): > 100 µM | TGI (CCRF-CEM leukemia): > 100 µM | TGI (SK-MEL-5 melanoma): > 100 µM | TGI (NCI/ADR-RES ovarian): > 100 µM | TGI (M14 melanoma): > 100 µM | TGI (ACHN renal): > 100 µM | TGI (UO-31 renal): > 100 µM

CC(=O)NC1C(OCc2ccccc2)OC(CO)C(O)C1OCC(=O)N1CCCC1C(=O)N[C@@H](CCC(=O)NCCCCNc1c2ccccc2nc2cccc([N+](=O)[O-])c12)C(N)=O (some centres undefined)
TGI (SK-OV-3 ovarian): > 100 µM | TGI (NCI/ADR-RES ovarian): > 100 µM | TGI (M14 melanoma): 40.5 µM | TGI (ACHN renal): > 100 µM | TGI (UO-31 renal): > 100 µM

C[C@H](c1ccccc1)N1C(=O)[C@@H](O)[C@H]1[C@H](CO)OCc1ccccc1
TGI (SK-OV-3 ovarian): > 100 µM | TGI (CCRF-CEM leukemia): > 100 µM | TGI (SK-MEL-5 melanoma): > 100 µM | TGI (NCI/ADR-RES ovarian): > 100 µM | TGI (M14 melanoma): > 100 µM | TGI (ACHN renal): > 100 µM | TGI (UO-31 renal): > 100 µM

O=C1c2cccc([N+](=O)[O-])c2C(=O)N1Cc1ccccc1
TGI (NCI-H522 lung): > 100 µM | TGI (SK-OV-3 ovarian): > 100 µM | TGI (CCRF-CEM leukemia): > 100 µM | TGI (SK-MEL-5 melanoma): > 100 µM | TGI (NCI/ADR-RES ovarian): > 100 µM | TGI (M14 melanoma): > 100 µM | TGI (ACHN renal): > 100 µM | TGI (UO-31 renal): > 100 µM

Cc1ccc2nc(SCC(=O)N=Nc3c(O)[nH]c4ccccc34)n(-c3ccccc3)c(=O)c2c1
TGI (SK-OV-3 ovarian): 26.7 µM | TGI (CCRF-CEM leukemia): 34.5 µM | TGI (SK-MEL-5 melanoma): 29.1 µM | TGI (NCI/ADR-RES ovarian): 26.1 µM | TGI (M14 melanoma): 29.8 µM | TGI (ACHN renal): 26.7 µM | TGI (UO-31 renal): 12.9 µM

CCN(CCCOc1ccccc1)CCN(CC)CCCOc1ccccc1
TGI (NCI-H522 lung): 28.9 µM | TGI (CCRF-CEM leukemia): > 100 µM | TGI (SK-MEL-5 melanoma): 5.44 µM | TGI (NCI/ADR-RES ovarian): 46.8 µM | TGI (M14 melanoma): 34.6 µM | TGI (ACHN renal): 31.5 µM | TGI (UO-31 renal): 22.3 µM

CC(C)(C)c1ccccc1N1C(=O)c2ccc3c4c(ccc(c24)C1=O)N(c1ccccc1C(C)(C)C)C3=O
TGI (NCI-H522 lung): > 100 µM | TGI (SK-OV-3 ovarian): > 100 µM | TGI (CCRF-CEM leukemia): > 100 µM | TGI (SK-MEL-5 melanoma): > 100 µM | TGI (NCI/ADR-RES ovarian): > 100 µM | TGI (M14 melanoma): > 100 µM | TGI (ACHN renal): > 100 µM | TGI (UO-31 renal): > 100 µM

CC(=O)c1c(-c2cccc3ccccc23)c(C#N)c(=S)n(C2OC(CO)C(O)C(O)C2O)c1C (centres undefined)
TGI (NCI-H522 lung): > 100 µM | TGI (SK-OV-3 ovarian): > 100 µM | TGI (CCRF-CEM leukemia): > 100 µM | TGI (SK-MEL-5 melanoma): > 100 µM | TGI (NCI/ADR-RES ovarian): > 100 µM | GI50 (M14 melanoma): > 100 µM and 42.6 µM | TGI (M14 melanoma): > 100 µM | TGI (ACHN renal): > 100 µM | TGI (UO-31 renal): > 100 µM

COc1ccc2c(c1)C(=O)CC1c3cnccc3C(=O)N21 (centres undefined)
TGI (NCI-H522 lung): > 100 µM | TGI (SK-OV-3 ovarian): > 100 µM | TGI (SK-MEL-5 melanoma): > 100 µM | TGI (NCI/ADR-RES ovarian): > 100 µM | TGI (M14 melanoma): > 100 µM | TGI (ACHN renal): > 100 µM | TGI (UO-31 renal): 99.5 µM

Oc1cc(Cc2ccccc2)c(Cc2ccccc2)cc1O
TGI (NCI-H522 lung): > 10 µM | TGI (SK-OV-3 ovarian): > 10 µM | TGI (CCRF-CEM leukemia): > 10 µM | TGI (SK-MEL-5 melanoma): > 10 µM | TGI (NCI/ADR-RES ovarian): > 10 µM | TGI (M14 melanoma): > 10 µM | TGI (ACHN renal): > 10 µM | TGI (UO-31 renal): > 10 µM

CCO/C(=N/S(=O)(=O)C(F)(F)F)N(C(C)C)C(C)C
TGI (NCI-H522 lung): > 100 µM | TGI (CCRF-CEM leukemia): > 100 µM | TGI (SK-MEL-5 melanoma): > 100 µM | TGI (NCI/ADR-RES ovarian): > 100 µM | TGI (M14 melanoma): > 100 µM | TGI (ACHN renal): > 100 µM

CC(C)=CCN1c2ccccc2NC(=O)CC1C (centres undefined)
TGI (NCI-H522 lung): > 100 µM | TGI (SK-OV-3 ovarian): > 100 µM | TGI (CCRF-CEM leukemia): > 100 µM | TGI (SK-MEL-5 melanoma): 85 µM | TGI (NCI/ADR-RES ovarian): > 100 µM | TGI (M14 melanoma): > 100 µM | TGI (ACHN renal): > 100 µM | TGI (UO-31 renal): > 100 µM

NC(=O)Nc1c(Cl)cc(S(N)(=O)=O)cc1Cl
TGI (NCI-H522 lung): > 100 µM | TGI (SK-OV-3 ovarian): > 100 µM | TGI (CCRF-CEM leukemia): > 100 µM | TGI (SK-MEL-5 melanoma): > 100 µM | TGI (NCI/ADR-RES ovarian): > 100 µM | TGI (M14 melanoma): > 100 µM | TGI (UO-31 renal): > 100 µM

Cc1ccc2c(c1)-c1nc(N)c(C#N)c(-c3ccc(Cl)cc3)c1CCS2(=O)=O
TGI (NCI-H522 lung): > 100 µM | TGI (CCRF-CEM leukemia): 72 µM | TGI (SK-MEL-5 melanoma): 40.2 µM | TGI (NCI/ADR-RES ovarian): > 100 µM | TGI (ACHN renal): > 100 µM | TGI (UO-31 renal): 86.2 µM

CCNCCNC(=O)c1ccc(I)cc1
TGI (SK-OV-3 ovarian): > 100 µM | TGI (CCRF-CEM leukemia): > 100 µM | TGI (SK-MEL-5 melanoma): > 100 µM | TGI (NCI/ADR-RES ovarian): > 100 µM | TGI (M14 melanoma): > 100 µM | TGI (ACHN renal): > 100 µM | TGI (UO-31 renal): > 100 µM

CC12CCC(CC(=O)/C1=C(/Br)I)C2(C)C (centres undefined)
TGI (SK-OV-3 ovarian): 45.4 µM | TGI (CCRF-CEM leukemia): 30.5 µM | TGI (SK-MEL-5 melanoma): 23.6 µM | TGI (NCI/ADR-RES ovarian): 29.8 µM | TGI (M14 melanoma): 28.3 µM | TGI (ACHN renal): 32.1 µM | TGI (UO-31 renal): 32.1 µM

CC(=O)O[C@H]1CC(C)(C)C(=C=C/C(C)=C/C=C/C=C/C=C(C)/C=C2C=C(/C=C/[C@@]34O[C@]3(C)C[C@@H](O)CC4(C)C)C(=O)O/2)[C@](C)(O)C1
TGI (CCRF-CEM leukemia): 10 µM | TGI (SK-MEL-5 melanoma): 28.9 µM | TGI (NCI/ADR-RES ovarian): 34.5 µM | TGI (M14 melanoma): 25.6 µM | TGI (ACHN renal): 48.7 µM | TGI (UO-31 renal): 30.7 µM

O=c1[nH]c(Nc2ccccc2)nc2c1ncn2CC(O)CSCCO (centres undefined)
TGI (NCI-H522 lung): > 100 µM | TGI (SK-OV-3 ovarian): > 100 µM | TGI (CCRF-CEM leukemia): > 100 µM | TGI (SK-MEL-5 melanoma): > 100 µM | TGI (NCI/ADR-RES ovarian): > 100 µM | TGI (M14 melanoma): > 100 µM | TGI (ACHN renal): > 100 µM

COc1cc(C2c3c(ccc4ccccc34)C(=O)C3CCC(=O)N32)cc(OC)c1OC (centres undefined)
TGI (NCI-H522 lung): > 50 µM | TGI (SK-OV-3 ovarian): > 50 µM | TGI (CCRF-CEM leukemia): > 50 µM | TGI (NCI/ADR-RES ovarian): > 50 µM | TGI (M14 melanoma): > 50 µM | TGI (ACHN renal): > 50 µM | TGI (UO-31 renal): > 50 µM

CN1CCN(C(=S)N(C)C(=O)c2ccco2)CC1
TGI (NCI-H522 lung): > 100 µM | TGI (CCRF-CEM leukemia): > 100 µM | TGI (SK-MEL-5 melanoma): > 100 µM | TGI (M14 melanoma): > 100 µM | TGI (ACHN renal): > 100 µM | TGI (UO-31 renal): > 100 µM

COc1cc2c(c(O)c1O)C(=O)C1CCC(=O)N1C2c1cccc2ccccc12 (centres undefined)
TGI (NCI-H522 lung): > 50 µM | TGI (SK-OV-3 ovarian): > 50 µM | TGI (CCRF-CEM leukemia): > 50 µM | TGI (NCI/ADR-RES ovarian): > 50 µM | TGI (M14 melanoma): > 50 µM | TGI (ACHN renal): > 50 µM | TGI (UO-31 renal): > 50 µM

C[C@@H]1OC(=O)C[C@H]2CC(=O)N(CCC3CN(C(=O)OCc4ccccc4)c4ccccc43)C[C@@H]21 (some centres undefined)
TGI (NCI-H522 lung): > 100 µM | TGI (SK-OV-3 ovarian): > 100 µM | TGI (SK-MEL-5 melanoma): > 100 µM | TGI (NCI/ADR-RES ovarian): > 100 µM | TGI (M14 melanoma): > 100 µM | TGI (ACHN renal): > 100 µM | TGI (UO-31 renal): > 100 µM

CCn1nc(C)c2c1C(=O)NCC(=O)N2
TGI (NCI-H522 lung): > 100 µM | TGI (SK-OV-3 ovarian): > 100 µM | TGI (SK-MEL-5 melanoma): > 100 µM | TGI (M14 melanoma): > 100 µM | TGI (ACHN renal): > 100 µM | TGI (UO-31 renal): > 100 µM

CC1CC[C@@]2(OC1)OC1C[C@H]3[C@@H]4CC=C5CC(OC6OC(CO)C(OC7OC(CO)C(O)C(OC8OCC(O)C(O)C8O)C7OC7OC(CO)C(OC8OC(C)C(OC9OC(C)C(O)C(O)C9O)C(O)C8O)C(O)C7O)C(O)C6O)CCC5(C)[C@H]4CCC3(C)C1[C@@H]2C (some centres undefined)
TGI (NCI-H522 lung): 16.8 µM | TGI (SK-OV-3 ovarian): 17.3 µM | TGI (CCRF-CEM leukemia): 21.9 µM | TGI (SK-MEL-5 melanoma): 15.8 µM | TGI (NCI/ADR-RES ovarian): 17.8 µM | TGI (M14 melanoma): 10.1 µM | TGI (ACHN renal): 9.92 µM

O=c1[nH]c2nc3ccccc3c(=O)n2/c1=C/c1ccc(Cl)cc1
TGI (NCI-H522 lung): 71.8 µM | TGI (SK-OV-3 ovarian): > 100 µM | TGI (CCRF-CEM leukemia): > 100 µM | TGI (NCI/ADR-RES ovarian): > 100 µM | TGI (M14 melanoma): > 100 µM | TGI (ACHN renal): > 100 µM | TGI (UO-31 renal): > 100 µM

c1ncn(C23C4C5C6C4C2C6C53)n1 (centres undefined)
TGI (NCI-H522 lung): > 100 µM | TGI (SK-OV-3 ovarian): > 100 µM | TGI (CCRF-CEM leukemia): > 100 µM | TGI (SK-MEL-5 melanoma): > 100 µM | TGI (NCI/ADR-RES ovarian): > 100 µM | TGI (ACHN renal): > 100 µM
